Assay results: patent US20080206183A1, “Method of Preparing Grafted Polylysine Dendrimers” (Central national De La Recherche Scientifique, priority 2005, published 2008)

Columns and labels:
[1] = Hydrodynamic range by quasi-elastic or static light diffusion (SLD); format: physicochemical
Description: (§1) In order to find the characteristic dimension of the GLDs in solution, the hydrodynamic ranges were determined from the molecular diffusion coefficients by using the Stoke-Einstein ratio:
(§2) where η is the viscosity of the medium, k the Boltzmann constant and T the temperature in K. In order to determine Dm, two experimental methods were used: quasi-elastic or static light diffusion (SLD) (coupled or not coupled with SEC), and the Taylor diffusion method (TDA). This latter method makes it possible to measure the diffusion coefficient of a species from the widening of a solute band under the influence of a hydrodynamic flow the speed profile of which is known to be dispersive (parabolic Poiseuille profile).
(§3) The TDA measurements were carried out using a capillary electrophoresis appliance, using silica capillaries of 50 μm i.d. (60 cm×50 cm up to the detector) the internal surface of which was previously modified by grafting a polycation (poly(diallyl-dimethyl-ammonium)) in order to limit the adsorption of the GLD solutes on the surface of the capillary. Dispersion of the solute band under the influence of the Poiseuille flow was measured using a UV spectrophotometer. The diffusion coefficient was then determined according to the method originally described by Taylor, then repeated by Bello et al.. In parallel to the TDA method, measurements were carried out by SLD, using a zetasizer (Malvern) device. Finally, it was also possible to obtain Rh measurements from the 3D-SEC (Viscotek). All of the numerical data for Rh is shown together in Table 3.

[2] = Hydrodynamic range by Taylor diffusion analysis (TDA); format: physicochemical
Description: as §1, §2, §3

[3] = Buffer 1 (H2PO4−Na+ 50 g/L, pH 4.5)
[4] = Buffer 2 (Buffer 1 + 3% acetonitrile)
[5] = Buffer 3 (physiological buffer, pH 7.0)

## linear poly-L-Lysine [P1]
[1]; [3]
  Rh (nm) hydrodynamic range: 1.18 nm
[1]; [4]
  Rh (nm) hydrodynamic range: 1.1 nm
[1]; [5]
  Rh (nm) hydrodynamic range: 1.01 nm
[2]; [3]
  Rh (nm) hydrodynamic range: 1.1 nm
[2]; [4]
  Rh (nm) hydrodynamic range: 0.95 nm
[2]; [5]
  Rh (nm) hydrodynamic range: 0.74 nm
